Entries after “also recorded” stand apart in the source; their conditions may differ.
How the values were obtained:
[1] = system: Rat Hypercalcemia Induced by PTHrp(1-34); assay: Rat hypercalcemia induced by PTHrp(1-34), oral administration; type: in vivo, Wistar rats
Excerpt: (§1) The active ingredient of the present invention normalizes the blood calcium concentration in rat hypercalcemia induced by PTHrp(1-34). PTHrp (parathyroid hormone-related protein) is a protein identified as the factor inducing hypercalcemia in humans. The fragment comprised of the 1 to 34th amino acid residues, that is, PTHrp(1-34), is the active type. The PTHrp(1-34) promotes bone resorption in vitro and induces hypercalcemia if administered to rats.
(§2) Using this model, the compound of the present invention was administered to Wistar rats, then PTHrp(1-34) was administered and the blood calcium concentration was measured after one hour after administration. […] That is, the compound of the present invention suppresses hypercalcemia induced by PTHrp(1-34), so is useful as a prophylactic or therapeutic agent for bone diseases.
(§3) To Wistar rats (5 weeks old, male, 90 to 110 g, 5 animals in each group), 40 mg/kg body weight of the compounds listed in Table 1 were administered orally. Four hours later, 5 nmole/kg of PTHrp(1-34) was intravenously injected. One hour after the administration of PTHrp(1-34), a blood sample was collected from each animal and the blood calcium concentration was measured by the octocresolphthalein complexone method.
Note that for reference, a similar evaluation was made of L-trans-epoxysuccinyl-L-leucineamide (e-guanide)-butane (E-64) Japanese Unexamined Patent Publication (Kokai) No. 63-284127 and the Z-Phe-Ala-CH2 F described in Japanese Examined Patent Publication (Kokoku) No. 4-1737.

[2] = system: Rat Hypercalcemia Induced by PTHrp(1-34); assay: Rat hypercalcemia induced by PTHrp(1-34), subcutaneous administration; type: in vivo, Wistar rats; details: 40 mg/kg subcutaneously at the back; 2 h later PTHrp(1-34) 5 nmole/kg i.v.; blood 1 h after PTHrp; n = 5; PTHrp-only group 11.28 ± 0.08, untreated 10.68 ± 0.09
Excerpt: as §1, §2
as §3, with “In the same way as Example 7, to” for “To”, “subcutaneously at the back. Two” for “orally. Four”

rats = assay: Acute toxicity LD50 after oral administration to rats; type: in vivo; details: in 20 hours
Protocol: The compound of the present invention is a low molecular weight dipeptide derivative, so the toxicity is low. For example, the acute toxicity LD50 of the compound 1 shown in Table 1 in 20 hours after oral administration to rats is over 1 g/kg.

[3] = 40 mg/kg orally; 4 h later PTHrp(1-34) 5 nmole/kg i.v.; blood 1 h after PTHrp; n = 5; PTHrp-only group 11.87 ± 0.14, untreated 11.42 ± 0.14

SMILES | Ca conc. ± standard error (average blood calcium concentration) [1, 3] [mg/dL] | effect on rise in blood calcium concentration (in words) ([1]; oral administration, 40 mg/kg, vs group treated with PTHrp(1-34) only) | Ca conc. ± standard error (average blood calcium concentration) [2] [mg/dL] | acute toxicity LD50 (rats) | effect on rise in blood calcium concentration (in words) ([1]; oral administration, 40 mg/kg, vs group treated with PTHrp(1-34) only; 40 mg/kg)
CC(C)C[C@H](NC(=O)[C@H]1O[C@@H]1C(=O)O)C(=O)NCCCCN=C(N)N (relative stereo) [Example E-64, L-trans-epoxysuccinyl-L-leucineamide (e-guanide)-butane] | 11.09 ± 0.14 | significantly suppressed the rise in the blood calcium concentration | 10.20 ± 0.09 |  | 
CCCCC(NC(=O)C(CC(C)C)NC(C)=O)C(=O)CF (stereo not drawn) [Ac-Leu-Nle-CH2 F, 3-(N-acetyl-leucylamide)-1-fluoro-2-heptanone] | 10.49 ± 0.09 |  | 10.13 ± 0.11 |  | 
CCCCC(NC(=O)C(CC(C)C)NC(=O)OCc1ccccc1)C(=O)CF (stereo not drawn) [Z-Leu-Nle-CH2 F, 3-(N-benzyloxycarbonyl-leucylamide)-1-fluoro-2-heptanone] | 11.09 ± 0.14 |  |  | over 1 g/kg | 
CC(NC(=O)C(Cc1ccccc1)NC(=O)OCc1ccccc1)C(=O)CF (stereo not drawn) [Z-Phe-Ala-CH2 F, 3-(N-benzyloxycarbonylphenylalanylamide)-1-fluoro-2-butanone] | 12.02 ± 0.20 |  |  |  | did not exhibit an activity; also recorded: did not exhibit any action of normalizing the calcium concentration
